Results as given in US20090281184A1, “PHARMACEUTICAL FOR PREVENTION AND TREATMENT OF OPHTHALMIC DISEASE INDUCED BY IN-CREASE IN VASOPERMEABILITY” (SAPPORO MEDICAL UNIVERSITY, priority 2005, published 2009).

B1: recombinant protein of GDNF: recombinant glial cell line-derived neurotrophic factor (protein, UniProt P39905 78-211, looked up)
Glial cell line-derived …: SPDKQMAVLPRRERNRQAAAANPENSRGKGRRGQRGKNRGCVLTAIHLNVTDLGLGYETKEELIFRYCSGSCDAAETTYDKILKNLSRNRRLVSDKVGQACCRPIAFDDDLSFLDDNLVYHILRKHSAKRCGCI

Columns and labels:
GDNF [1] = test: Suppression of GDNF expression by AGE-2 in human astrocyte (RT-PCR, ELISA); assay type: cell-based; conditions: p<0.001; for inhibition of the effect of AGE-2 to suppress the expression of GDNF, protein level: combination with AGE-2, ELISA of cell culture medium; for inhibition of the effect of AGE-2 to suppress the expression of GDNF, mRNA level: combination with AGE-2, RT-PCR
Description: Human astrocyte was treated with AGE-2 alone, or combinations of AGE-2 with atRA or Am580, and alterations in the expression of GDNF was evaluated in the same manner as FIG. 6.

VEGF = VEGF expression in primary cultured human astrocyte; assay type: cell-based; conditions: treated groups, FIG. 6
Description: (§1) In Examples 1 and 2, U373MG cells, a cell line having the characteristic as astrocyte, was used for convenience of the experiment. […] Therefore, studies were made to evaluate whether or not the enhancement of the expression of GDNF by the retinoid can be observed also in the system using human astrocyte. The astrocyte used in the experiment was a primary cultured cell isolated from the human brain, and was purchased from Cambrex Corporation, USA. This means provides an advantage that observation is achievable under environments closer to those in vivo.
Whilst, the expression of VRGF that is a strong vascular hyperpermeability factor was suppressed in the treated groups. […] In this case, a value of the expression of each of non-treated groups is used as an inner control, and an amount of the expression of the treated groups is calculated from the concentration on the gel and the area. […] The experimental groups in FIG. 6 are as follows, and the upper figure indicates the photographs of the gel, the lower figure indicates visualized differences of relative amounts obtained by the quantification thereof.

diabetic model mice = test: Streptozotocin-induced diabetic model mice, FITC dextran in the eyes as index of vascular permeability; assay type: in vivo, mouse; conditions: atRA 1 mg/kg intraperitoneally
Description: Male 5 to 6 week-old C57/BL6 mice were administered with streptozotocin and diabetes was chemically induce in these model mice. To these diabetic model mice, retinoids were administered to evaluate clinical effectiveness. For reference, mice without the diabetic induction were used as control.
Experimental groups: 1. Control (group of non-induction of diabetes) 2. Diabetic group (non-treated group) 3. Diabetic group (atRA-treated group) 4. Diabetic group (Am580-treated group) 5. Diabetic group (Am80-treated group)
The onset of diabetes was confirmed by periodical measurement of glucose in urine, and after all the mice became strongly positive, by measurement of blood glucose. The mice of 4 to 6 week-pathological period with diabetes were used. […] Mice were divided into 4 groups as mentioned above for the treatment. The treatment were performed by administrating atRA (1 mg/kg), Am580 (3.75 mg/kg), and Am80 (4.5 mg/kg) intraperitoneally every other day for 4 days. […] As the index of the permeability, the FITC in the eyes was measured, and the value was standardized with the FITC amount contained in cardiac blood to minimize a potential difference between each amount of dose.
As biological parameters, blood sugar (BS) and urine sugar (US) were evaluated.

[2] = system: MDCK (Madin Darby Canine Kidney) cell; test: Barrier function evaluation with MDCK cells, same parameters as Example 2; assay type: cell-based, dog
Source text: The vascular endothelial cell used in Example 2 is the primary culture strain obtained from the bovine brain, which has an advantage of capable of reproducing in vitro conditions more similar to those in a living body. However, unlike those called as cell lines, the strain of the primary cultured cell has limited number of division and a slow division rate, and therefore has an aspect of unsuitability for an experimental system that requires repeated examination. Accordingly, MDCK (Madin Darby Canine Kidney) cell as dog-derived kidney tubule cell (easily available commercially) was used, which cell is optimum for the evaluation of the barrier function and has been experienced of being already used in variety of experimental systems. The effect of synthetic retinoids was evaluated with the same parameter as those in Example 2. The experimental groups in FIG. 5 are as follows:
1. Non-treated group 2. atRA (RARα agonist) 3. Am80 (RARα agonist) 4. Am580 (RARα agonist)
In FIG. 5, the non-treated group (control) is defined as “1”, and relative differences thereto are shown as graphs.

GDNF [3] = test: GDNF expression in primary cultured human astrocyte; assay type: cell-based; conditions: for GDNP expression / suppression of the vascular permeability (expression of GDNF divided by expression of VEGF): human astrocyte; for GDNP expression: FIG. 6; for suppression of the vascular permeability (expression of GDNF divided by expression of VEGF): non-treated group as inner control; for expression of GDNF mRNA: preliminary experiment, see FIG. 6
Description: as §1
Whilst, the expression of VRGF that is a strong vascular hyperpermeability factor was suppressed in the treated groups. The level of suppression of the vascular permeability in the treated groups is represented by a relative amount of the two factors that define permeability, specifically, a value obtained by dividing a value of the expression of GDNF that is the permeability-suppressing factor by a value of the expression of VEGF that is a hyperpermeability factor. In this case, a value of the expression of each of non-treated groups is used as an inner control, and an amount of the expression of the treated groups is calculated from the concentration on the gel and the area. […] The experimental groups in FIG. 6 are as follows, and the upper figure indicates the photographs of the gel, the lower figure indicates visualized differences of relative amounts obtained by the quantification thereof.

GDNF [4] = test: GDNF expression by atRA treatment in human glioma cells (quantitative RT-PCR, Southern blot); assay type: cell-based; conditions: U373MG cells
Description: U373MG cells were cultured in a relatively dense state, and were treated with 10 nM or 100 nM of all-trans retinoic acid (atRA). mRNA was extracted from the cells and subjected to quantitative RT-PCR, and then changes in the gene expression were analyzed and quantified by the Southern blot method. Reverse transcription was performed by using a kit manufactured by Invitrogen. The reagents were prepared according to the manufacturer's instructions, and reacted at 42° C. for 30 minutes. The product was used for PCR after denaturation of reverse transcriptase at 96° C. for 5 minutes. For the PCR reaction, each reagent manufactured by TaKaRa was prepared by mixing according to the manufacturer's instructions, and the following reactions were performed:
1) 94° C., 30 seconds 2) 94° C., 15 seconds 3) 52° C., 15 seconds 4) 72° C., 30 seconds 5) repeat of the reactions from 2) to 4) for 32 times 6) 72° C., 7 minutes
The final reaction product was used for the Southern blot test.

[5] = system: vascular endothelial cells; test: Direct treatment of vascular endothelial cells in the absence of astrocyte; assay type: cell-based; conditions: FIG. 8
Source text: It is known that the vascular endothelial cells also have retinoid receptors, and accordingly, there remains a possibility that atRA contained in the cell culture medium effected directly on the vascular endothelial cells during the co-culture. However, when a recombinant protein of GDNF was directly effected on the vascular endothelial cells in the absence of astrocyte, the increase in TER and the decrease in the permeability were induced (*p<0.05), whilst these changes were not observed when the cells were treated with atRA (FIG. 8).

[6] = system: vascular endothelial cells obtained from the bovine brain; test: Barrier function of vascular endothelial cells co-cultured with atRA-treated U373MG cells (transwell double chamber); assay type: cell-based; conditions: p<0.05
Description: In order to evaluate whether or not the alteration induces physiological reactions, co-cultivation with vascular endothelial was performed. […] As can be understood from FIG. 3, the […] cells (astrocytes) were grown as effector cells in the outer chamber, and treated with atRA and cultured for additional 24 hours. In the inner chamber separately prepared, vascular endothelial cells obtained from the bovine brain were cultured to prepare beforehand for forming a dense single layer cell-sheet.
The outer chamber with U373MG cells and the inner chamber with the vascular endothelial cells were jointed to start the co-culture for evaluation of the barrier function that is a tight-function of the vascular endothelial cells. […] In this experiment, as functional alterations of the vascular endothelial cells by the influence of the astrocyte, the difference in electrical resistance inside and outside of the vascular endothelial cells, and the mobility to the outer chamber of the labeled substance (^14C-labeled) added in the inner chamber were evaluated as indexes as the vascular permeability. The activity of the transferred radioactive substance is indicated as dpm (disintegrations per minutes).

[7] = relative to non-treated group, p<0.05
[8] = 14C-labeled, co-culture with atRA-treated U373MG cells

| Molecule | inhibition of the effect of AGE-2 to suppress the expression of GDNF, protein level (GDNF [1]) | inhibition of the effect of AGE-2 to suppress the expression of GDNF, mRNA level (GDNF [1]) | expression of VRGF (VEGF) | effectiveness on vascular hyperpermeability (amount of FITC in the eyes) (diabetic model mice; middle stage diabetic group, Am580 3.75 mg/kg) | TER ([2]; relative to non-treated group defined as 1, p<0.05) | intercellular permeability (inulin) [2, 7] | intercellular permeability (mannitol) [2, 7] | GDNP expression (GDNF [3]) | suppression of the vascular permeability (expression of GDNF divided by expression of VEGF) (GDNF [3]) | expression of GDNF mRNA (GDNF [3]) | time at which the increase in GDNF expression reached a plateau level (GDNF [4]) | GDNF mRNA level expression (GDNF [4]; 10 nM or 100 nM, after 3 hours and 24 hours) | urine sugar (US) (diabetic model mice; diabetic mice, compared to the non-treated group) | TER [5] | permeability [5] | permeability of inulin (5 kDa) [6, 8] | permeability of mannitol (182 Da) [6, 8] | TER (transepithelial electrical resistance), barrier function of the vascular endothelial cells ([6]; co-culture with U373MG cells treated with atRA) |
| --- | --- | --- | --- | --- | --- | --- | --- | --- | --- | --- | --- | --- | --- | --- | --- | --- | --- | --- |
| CC1(C)CCC(C)(C)c2cc(C(=O)Nc3ccc(C(=O)O)cc3)ccc21 [Am580, 4-[(5,6,7,8-tetrahydro-5,5,8,8-tetramethyl-2-naphthalenyl)carboxamide]benzoic acid] | strongly inhibited | strongly inhibited | suppressed | higher effectiveness than atRA | more effective than atRA, and much effective than Am80 | most effectively suppressed | most effectively suppressed | significantly increases | about three-fold | induced the expression of GDNF mRNA in a dose-dependent and time-dependent manner | – | – | – | – | – | – | – | – |
| CC1=C(/C=C/C(C)=C/C=C/C(C)=C/C(=O)O)C(C)(C)CCC1 [atRA, all-trans retinoic acid] | strongly inhibited | strongly inhibited | suppressed | – | – | – | – | significantly increases | about three-fold | induced the expression of GDNF mRNA in a dose-dependent and time-dependent manner | about 3 hours | increased in relation to the elevated concentration | Significantly lower | not observed | not observed | significantly suppressed | significantly suppressed | enhanced |
| B1 | – | – | – | – | – | – | – | – | – | – | – | – | – | increase | decrease | – | – | – |
